# Laboratory results published in patent publication US9353089B2, “Compositions and methods for the treatment of malaria” (Saint Louis University, priority 2013, dated 2016).
# Where two headings read alike, the source gives them in different places. Non-standard residues stand in square brackets, D forms with d. Residues, ends and D or L forms follow the SMILES beside them. *: point of attachment. Sta = CC(C)C[C@H](N)[C@@H](O)CC(=O)O; Isovaleryl = CC(C)CC(=O)*
# Tests used:
# [1] = target: recombinant human Cathepsin E (Homo sapiens (Human), UniProt P14091); test: Cathepsin E enzyme inhibition FRET assay; format: biochemical; details: Table 8; read-out: CatE IC50
# Method: (§1) The enzymatic inhibition activity assays were determined using the fluorescence resonance energy transfer (FRET) assay. The assays were performed in a 384-well plate format. […] The concentration of Cathepsin D was 20 ng/μL, and 1 ng/μL of Cathepsin E was used. CatD and CatE were activated by incubation in assay buffer (0.1 M NaOAc, 0.2 M NaCl, pH 3.5) at room temperature for 30 min. Subsequently, the rhBACE-1 substrate (R&D Systems, catalog# ES004), the Cathepsin D and Cathepsin E substrate (R&D Systems, Catalog # ES001) were added accordingly to final concentration 20 μM to initiate the reaction. After 60 min incubation at room temperature, the time-resolved fluorescence at Ex/Em=360 nm/460 nm was measured on an EnVision multilabel plate reader (Perkin-Elmer). The analytical software, GraphPad Prism 5.0 (GraphPad Software, Inc., USA) was used to generate IC50 values via non-linear regression analysis, which are reported in Tables 8-13 below as BACE1 IC50 values.
# recombinant human BACE1 [2] = target: recombinant human BACE1 (Homo sapiens, UniProt P56817); test: β-Secretase (BACE1) enzyme inhibition FRET assay; format: biochemical
# Method: (§2) The enzymatic inhibition activity assays were determined using the fluorescence resonance energy transfer (FRET) assay. The assays were performed in a 384-well plate format. […] CatD and CatE were activated by incubation in assay buffer (0.1 M NaOAc, 0.2 M NaCl, pH 3.5) at room temperature for 30 min. Subsequently, the rhBACE-1 substrate (R&D Systems, catalog# ES004), the Cathepsin D and Cathepsin E substrate (R&D Systems, Catalog # ES001) were added accordingly to final concentration 20 μM to initiate the reaction. After 60 min incubation at room temperature, the time-resolved fluorescence at Ex/Em=360 nm/460 nm was measured on an EnVision multilabel plate reader (Perkin-Elmer). The analytical software, GraphPad Prism 5.0 (GraphPad Software, Inc., USA) was used to generate IC50 values via non-linear regression analysis, which are reported in Tables 8-13 below as BACE1 IC50 values.
# [3] = target: Plasmepsin-2 (PM-2; Plm II) (Plasmodium falciparum (isolate HB3), UniProt P46925); test: Plasmepsin-2 enzyme inhibition assay; format: biochemical
# In short: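 Enzymes activated in pH 4.5 citrate/DTT buffer, then assayed in 50 mM sodium acetate pH 4.7, 0.01% Tween-20. Compounds added before fluorogenic peptide substrate (final 20 µM); 60 min at room temperature, fluorescence Ex/Em 360/535 nm, IC50 by curve fit.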
# [4] = system: Plasmodium falciparum 3D7 (CQ-sensitive); test: In vitro antimalarial assay (malaria SYBR Green I-based fluorescence, MSF), 3D7; format: cell-based
# In short: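 Asynchronous P. falciparum 3D7 cultures (0.5% parasitemia, 2% hematocrit) were exposed to serially diluted compounds, in quadruplicate. Growth was then quantified by SYBR Green I fluorescence after adding lysis buffer containing 0.2 μL/mL dye.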
# [5] = target: recombinant human Cathepsin D (Homo sapiens (Human), UniProt P07339); test: Cathepsin D enzyme inhibition FRET assay; format: biochemical; details: for IC50: Table 8, read-out: CatD IC50
# Method: as §1
# [6] = target: Plasmepsin (PM-4; Plm IV) (Plasmodium falciparum (isolate 3D7), UniProt Q8IM16); test: Plasmepsin-4 enzyme inhibition assay; format: biochemical; details: Table 8
# Method: Plasmepsin-2 (PM-2; Plm II) and Plasmepsin (PM-4; Plm IV) expression and purification was performed following the published protocols (Istvan E S and Goldberg D E, 2005). The final purified protein was activated by diluting the protein to 0.3 mg/mL in activating buffer (0.1 M citrate pH 4.5, 0.1% Tween-20, 50 mM dithiothreitol) and incubated at room temperature for 40 min, then the activated enzyme was diluted in assay buffer (50 mM sodium acetate pH 4.7, 0.01% Tween-20). The enzymatic inhibition reaction was performed in 384 well plates with a total volume of 20 μl. 10 μl of diluted PM-2 or PM-4 enzyme was added to the 384-well plate except blank wells (blank wells add 10 μL of assay buffer) and 20 nL of serials of diluted 1000× compounds were added to the wells with 520 Echo® Liquid Handling System (Labcyte Inc.). 10 μL PM-2 peptide substrate (AnaSpec, Cat#, 62050) with assay buffer was then added to final concentration of 20 μM to start the reaction. After incubation the reaction at room temperature for 60 min, the fluorescence intensity at Ex/Em=360 nm/535 nm was measured using EnVision multilabel plate reader (Perkin-Elmer). The IC50 values were obtained using Graph Pad Prism 4 and are reported in Tables 8 and 9 below as PM-2 IC50 values.
# recombinant human BACE1 [7] = test: β-Secretase (BACE1) enzyme inhibition FRET assay; format: biochemical
# Method: as §2
# Plasmepsin V (PM-V) = Plasmepsin V (PM-V) (Plasmodium falciparum (isolate 3D7), UniProt Q8I6Z5); details: known inhibitors, background; cited from earlier work
# [8] = system: Plasmodium falciparum Dd2 (multi-drug resistant); test: In vitro antimalarial assay (malaria SYBR Green I-based fluorescence, MSF), Dd2; format: cell-based; details: DD2, read-out: Dd2 IC50 (μM)
# Method: In vitro antimalarial activity was determined by a malaria SYBR Green I-based fluorescence (MSF) method described previously by Smilkstein et al. (2004, which is incorporated herein by reference) with slight modification (Winter, et al., 2006, which is incorporated herein by reference). Stock solutions of each test drug were prepared in DMSO at a concentration of 20 mM. The drug solutions were serially diluted with culture medium and distributed to asynchronous parasite cultures on 96-well plates in quadruplicate in a total volume of 100 μL to achieve 0.5% parasitemia with a 2% hematocrit in a total volume of 100 pt. The plates were then incubated for 72 h at 37° C. After incubation, 100 μL of lysis buffer with 0.2 μL/mL SYBR Green I was added to each well. The plates were incubated at 37° C. for an hour in the dark and then placed in a 96-well fluorescence plate reader (Spectramax Gemini-EM; Molecular Diagnostics) with excitation and emission wavelengths at 497 nm and 520 nm, respectively, for measurement of fluorescence.
# Antimalarial potency of compounds was determined by this technique for both Plasmodium falciparum 3D7 (CQ-sensitive) and Dd2 (multi-drug resistant) strains.
# [9] = system: Plasmodium chabaudi ASS and ASCQ strains; test: In vivo antimalarial efficacy 4-day suppressive test; details: NIH mice, 4.5 mpk orally once daily for four days, Day 4 postinoculation
# Method: Briefly, NIH mice (n=8 per group) were inoculated i.p. with 2×10^7 parasitized (Plasmodium chabaudi ASS or ASCQ) red blood cells. […] Groups (n=6) including a vehicle control and chloroquine (CQ) as a reference drug were included. Parasitemia levels were determined on the day following the last treatment (Day 4).
# [10] = 3D7, read-out: Pf 3D7 IC50, Table 8
# [11] = 3D7, Table 8, read-out: Pf 3D7 IC50
# [12] = 3D7, Table 10, read-out: Pf3D7 IC50
# [13] = 3D7, Table 13, read-out: 3D7 IC50
# [14] = ratio of BACE1 IC50 to PM-2 IC50
# [15] = 3D7, read-out: 3D7 IC50 (μM), Table 12
# [16] = 3D7, read-out: 3D7 IC50 (μM), Table 13
# [17] = 3D7, read-out: Pf 3D7 IC50 (μM), Table 11
# Chain of Plasmepsin (PM-4; Plm IV) (Q8IM16 122-449 limits assumed): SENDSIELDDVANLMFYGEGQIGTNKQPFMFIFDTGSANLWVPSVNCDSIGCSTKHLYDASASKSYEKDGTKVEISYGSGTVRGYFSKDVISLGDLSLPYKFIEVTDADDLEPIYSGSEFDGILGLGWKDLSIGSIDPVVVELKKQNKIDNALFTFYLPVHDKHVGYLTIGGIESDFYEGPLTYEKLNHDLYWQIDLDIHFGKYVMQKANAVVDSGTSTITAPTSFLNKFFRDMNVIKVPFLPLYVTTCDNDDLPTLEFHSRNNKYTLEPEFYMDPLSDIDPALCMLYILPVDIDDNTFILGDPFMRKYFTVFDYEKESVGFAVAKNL
# Chain of recombinant human Cathepsin D (P07339 65-412): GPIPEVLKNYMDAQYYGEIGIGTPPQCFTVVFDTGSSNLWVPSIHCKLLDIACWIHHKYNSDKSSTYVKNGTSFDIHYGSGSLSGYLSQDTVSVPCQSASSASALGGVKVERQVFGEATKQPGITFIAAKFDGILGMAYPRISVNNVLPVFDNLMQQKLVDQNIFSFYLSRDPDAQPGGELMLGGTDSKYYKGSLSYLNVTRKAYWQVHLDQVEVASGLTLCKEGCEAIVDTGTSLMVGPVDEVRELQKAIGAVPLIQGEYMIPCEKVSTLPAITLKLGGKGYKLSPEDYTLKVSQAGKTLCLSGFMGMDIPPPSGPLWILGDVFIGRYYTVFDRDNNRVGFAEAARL
# Chain of recombinant human BACE1 (Homo sapiens, UniProt P56817) (P56817 46-501 limits assumed): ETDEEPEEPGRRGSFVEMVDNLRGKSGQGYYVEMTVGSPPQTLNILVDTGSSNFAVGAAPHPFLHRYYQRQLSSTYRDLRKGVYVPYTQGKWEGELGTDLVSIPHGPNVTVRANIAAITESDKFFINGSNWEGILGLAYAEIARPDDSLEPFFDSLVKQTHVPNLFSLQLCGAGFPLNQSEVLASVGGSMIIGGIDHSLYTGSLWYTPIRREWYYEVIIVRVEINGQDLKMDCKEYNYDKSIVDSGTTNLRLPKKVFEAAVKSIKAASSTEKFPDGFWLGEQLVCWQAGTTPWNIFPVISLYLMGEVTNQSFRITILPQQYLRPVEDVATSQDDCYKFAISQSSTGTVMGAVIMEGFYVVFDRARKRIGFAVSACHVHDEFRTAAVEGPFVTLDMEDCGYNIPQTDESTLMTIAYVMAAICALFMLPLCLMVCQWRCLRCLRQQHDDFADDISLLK
# Chain of Plasmepsin-2 (PM-2; Plm II) (P46925 125-453 limits assumed): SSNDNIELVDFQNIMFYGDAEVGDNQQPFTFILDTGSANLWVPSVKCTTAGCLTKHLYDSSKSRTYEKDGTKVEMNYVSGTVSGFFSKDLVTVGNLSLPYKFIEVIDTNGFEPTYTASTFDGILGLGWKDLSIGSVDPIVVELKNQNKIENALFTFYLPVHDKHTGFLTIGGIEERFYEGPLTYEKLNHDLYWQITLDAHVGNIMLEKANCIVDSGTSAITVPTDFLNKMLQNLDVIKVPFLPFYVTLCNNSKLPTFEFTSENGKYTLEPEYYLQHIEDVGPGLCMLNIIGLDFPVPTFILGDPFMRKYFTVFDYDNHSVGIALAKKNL
# Chain of recombinant human Cathepsin E (P14091 54-396): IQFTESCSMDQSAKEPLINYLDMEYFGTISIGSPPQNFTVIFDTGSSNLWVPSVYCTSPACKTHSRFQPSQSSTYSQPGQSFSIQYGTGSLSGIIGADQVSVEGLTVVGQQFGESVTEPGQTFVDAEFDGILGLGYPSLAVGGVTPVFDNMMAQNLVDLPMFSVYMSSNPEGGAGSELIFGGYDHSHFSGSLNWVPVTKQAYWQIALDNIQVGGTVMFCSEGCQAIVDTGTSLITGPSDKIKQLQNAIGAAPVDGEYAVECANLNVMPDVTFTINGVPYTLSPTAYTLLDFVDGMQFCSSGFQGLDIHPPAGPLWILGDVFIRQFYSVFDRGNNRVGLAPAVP
SMILES,"IC50 ([3]; Table 8, read-out: PM-II IC50) [nM]",IC50 [6] [nM],"IC50 ([3]; Table 13, read-out: PM-2 IC50) [nM]","IC50 (recombinant human BACE1 [2]; Table 12, read-out: BACE1 IC50) [µM]","IC50 (recombinant human BACE1 [2]; Table 13, read-out: BACE1 IC50) [µM]","IC50 ([3]; Table 12, read-out: PM-2 IC50) [nM]","IC50 [4, 16] [µM]",other results
CCC(CN1C(=N)NC(c2ccccc2)(c2ccccc2)C1=O)c1ccccc1 (centres unmarked) [drawing 192],12,45,,,,,,"IC50 [1]: 99 nM; IC50 (recombinant human BACE1 [2]; Table 8, read-out: BACE IC50): 2.3 µM; IC50 [4, 10]: 2.76 µM; IC50 [5]: 385 nM"
"COc1ccc(C2(c3ccc(OC)cc3)NC(=N)N(C3CCN(C)CC3)C2=O)cc1 [Example 166, 2-imino-5,5-bis(4-methoxyphenyl)-3-(1-methylpiperidin-4-yl)imidazolidin-4-one]",35,109,34.7,,,,,"IC50 [4, 11]: 0.697 µM; IC50 [4, 12]: 0.697 µM; IC50 [4, 13]: 0.697 µM"
"N=C1NC(c2ccccc2)(c2cccc(-c3cccnc3)c2)C(=O)N1C1CCCCC1 (centres unmarked) [Example 136, 3-cyclohexyl-2-imino-5-phenyl-5-[3-(pyridin-3-yl)-phenyl]imidazolidin-4-one]",13,31,13,18.1,18.1,13,0.75,"IC50 [1]: > 10000 nM; selectivity for PM-II over BACE (recombinant human BACE1 [7]): > 1000 fold; BACE1/PM2 Ratio (recombinant human BACE1 [7]; [14]): 1392; IC50 (recombinant human BACE1 [2]; Table 8, read-out: BACE IC50): 1.68 µM; IC50 [4, 15]: 0.75 µM; IC50 [4, 17]: 0.75 µM; IC50 [4, 10]: 0.75 µM; selectivity for PM-II over CatD [5]: > 1000 fold; IC50 [5]: > 10000 nM"
"COc1ccc(C2(c3ccc(OC)cc3)NC(=N)N(C3CCNCC3)C2=O)cc1 [Example 207, 2-imino-5,5-bis(4-methoxyphenyl)-3-(piperidin-4-yl)-imidazolidin-4-one]",505,192,505,,,,,"IC50 [4, 11]: > 5 µM; IC50 [4, 12]: > 5 µM; IC50 [4, 13]: > 5 µM"
"COc1cccc(-c2cccc(C3(c4ccccc4)NC(=N)N(C4CCCCC4)C3=O)c2)c1 (centres unmarked) [Example 326, 3-cyclohexyl-2-imino-5-[3-(3-methoxyphenyl)phenyl]-5-phenylimidazolidin-4-one]",,,33.1,~9,~8.9,33.1,1.34,"BACE1/PM2 Ratio (recombinant human BACE1 [7]; [14]): ~270; IC50 [4, 15]: 1.34 µM"
COc1ccc(C2(c3ccc(OC)cc3)NC(=O)N(C3CCCCC3)C2=O)cc1,> 10000,> 10000,,,,,,"IC50 [4, 11]: > 10 µM"
Cc1cccc(C)c1OCC(=O)N[C@@H](Cc1ccccc1)[C@@H](O)C[C@H](Cc1ccccc1)NC(=O)[C@H](C(C)C)N1CCCNC1=O [lopinavir],,,,,,,,IC50 (Plasmepsin V (PM-V)): > 20 µM
"COc1cccc(C2(c3cccc(OC)c3)NC(=N)N(C3CCCCC3)C2=O)c1 [Example 128, 3-cyclohexyl-2-imino-5,5-bis(3-methoxyphenyl)-imidazolidin-4-one]",36,41,35.9,,28.9,,0.768,"IC50 [1]: 1860 nM; IC50 (recombinant human BACE1 [2]; Table 8, read-out: BACE IC50): 28.9 µM; IC50 [4, 17]: 0.768 µM; IC50 [4, 10]: 0.768 µM; IC50 [5]: 1100 nM"
CC(C)CC(=O)N[C@H](C(=O)N[C@H](C(=O)N[C@@H](CC(C)C)[C@@H](O)CC(=O)N[C@@H](C)C(=O)N[C@@H](CC(C)C)[C@@H](O)CC(=O)O)C(C)C)C(C)C [pepstatin A] (Isovaleryl-VV[Sta]A[Sta]-OH),,,,,,,,IC50 (Plasmepsin V (PM-V)): > 20 µM
"COc1ccc(C2(c3ccc(OC)cc3)NC(=N)N(CC3CCCCC3)C2=O)cc1 [Example 221, 3-(cyclohexylmethyl)-2-imino-5,5-bis(4-methoxyphenyl)-imidazolidin-4-one]",,,2.39,,6.01,,0.207,"IC50 ([4]; 3D7, read-out: Pf3D7 IC50 (μM), Table 10): 0.383 µM; IC50 [8]: 0.367 µM"
"COc1cccc(-c2cccc(C3(C4CC4)NC(=N)N(C4CCOCC4)C3=O)c2)c1 (centres unmarked) [Example 329, 5-cyclopropyl-2-imino-5-[3-(3-methoxyphenyl)-phenyl]-3-(oxan-4-yl)imidazolidin-4-one]",,,83.1,~4,~3.6,83.1,0.621,"BACE1/PM2 Ratio (recombinant human BACE1 [7]): 48; IC50 [4, 15]: 0.746 µM"
"COc1cccc(-c2cccc(C3(C4CC4)NC(=N)N(C4CCCCC4)C3=O)c2)c1 (centres unmarked) [Example 328, 3-cyclohexyl-5-cyclopropyl-2-imino-5-[3-(3-methoxyphenyl)-phenyl]imidazolidin-4-one]",,,104,~7,~6.8,104,0.746,BACE1/PM2 Ratio (recombinant human BACE1 [7]; [14]): 67
"COc1cccc(-c2cccc(C3(c4ccccc4)NC(=N)N(C4CCOCC4)C3=O)c2)c1 (centres unmarked) [Example 324, 2-imino-5-[3-(3-methoxyphenyl)-phenyl]-3-(oxan-4-yl)-5-phenylimidazolidin-4-one]",,,11.3,2.46,2.46,11.3,1.46,"BACE1/PM2 Ratio (recombinant human BACE1 [7]; [14]): 218; IC50 [4, 15]: 1.46 µM"
"CCN(CC)CCCC(C)Nc1ccnc2cc(Cl)ccc12 (centres unmarked) [CQ, chloroquine, reference compound]",,,,,,,,% Inhibition of parasitemia [9]: 99.99%
"COc1ccc(C2(c3cccc(-c4cccnc4)c3)NC(=N)N(C3CCCCC3)C2=O)cc1 (centres unmarked) [Example 171, 3-cyclohexyl-2-imino-5-(4-methoxyphenyl)-5-[3-(pyridin-3-yl)phenyl]-imidazolidin-4-one]",7,7,6.97,,~7.15,,0.595,"IC50 [1]: 4010 nM; IC50 (recombinant human BACE1 [2]; Table 8, read-out: BACE IC50): ~7.15 µM; IC50 [4, 17]: 0.595 µM; IC50 [4, 10]: 0.595 µM; IC50 [5]: ~14900 nM"
